In patent US20240358862A1, “Synthesis Method and Application of a Near-infrared Probe GGa-ICG specific binding to PSCA” (Guangzhou Shiyun Biotechnology Co., Ltd, priority 2022, published 2024):

What was measured:
PSCA [1] = target: T1, PSCA (Homo sapiens, UniProt O43653); test: Mass spectrometry analysis of the target protein of GGa-ICG; type: binding; set-up: Membrane proteins of PC-3 cells were extracted; endogenous in cells; host or cells: PC-3; conditions: PC-3 membrane proteins, 35 kDa band
T1 sequence (O43653 12-83): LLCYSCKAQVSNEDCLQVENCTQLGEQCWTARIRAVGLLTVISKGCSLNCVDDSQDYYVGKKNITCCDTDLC
Experimental: PC-3 cells were washed three times with cold PBS buffer and lysed at 4° C. for 30 minutes in 5 mL of low-salt buffer [50 mM Tris-HCl (pH=7.5) containing protease inhibitor (0.1 mM PMSF complex)]. After centrifugation, the pellets were washed 3 times with 5 mL of low-salt buffer and then solubilized in 1.5 mL of lysis buffer (PBS containing 5 mM MgCl2 and 1% Triton X-100) at 4° C. for 30 minutes. The resulting supernatants were separately incubated with beads, ssDNA-ICG, or GGa-ICG at 4° C. for 1 hour. Protein-ssDNA-ICG or protein-GGa-ICG complexes were then captured by incubating them with 2 mg (200 μL) of streptavidin beads at 4° C. for 45 minutes. After centrifugation, the captured proteins were heated and eluted in 30 μL of loading buffer and then analyzed by SDS-PAGE gel and Coomassie blue staining. The protein bands showing significant differences in aptamer purification among different groups were subjected to in situ digestion and analyzed by LC-MS/MS.
Based on the above results, total membrane proteins were extracted from PC-3 cells and incubated with biotinylated GGa-ICG or ssDNA-ICG separately. Then, the binding complex was separated using streptavidin-coated magnetic beads and analyzed by SDS-PAGE gel. A characteristic protein band with a relative molecular weight of 35 kDa was found in the GGa-ICG column, which was digested and analyzed by LC-MS/MS QSTAR.

PC tissues = test: GGa-ICG staining of PC clinical tissue sections (confocal fluorescence microscopy); conditions: 200 nM, paraffin sections
Experimental: Methods: Paraffin tissue blocks were provided by the Pathology Department of the Third Affiliated Hospital of Sun Yat-sen University (Guangzhou, China). Tissue sections were deparaffinized twice in xylene for 10 min each time, followed by rehydration in a series of graded ethanol (100%, 95%, and 70%) and rinsed in deionized water. After washing in PBS for 5 min, the sections were incubated in TE buffer (10 mM Tris, 1 mM EDTA, pH=8.0, per liter of ddH2O) and boiled in a microwave oven until boiling, then kept at 95° C. for 15 min to retrieve the antigen. The sections were allowed to cool naturally to room temperature and then washed three times with fresh PBS. After histological processing, tissue sections were incubated with binding buffer containing 20% FBS and 0.1 mg/mL Herring Sperm DNA at room temperature for 60 min, followed by incubation with 200 nM GGa-ICG in the binding buffer at 4° C. for 60 min. The sections were washed three times with fresh PBS, dehydrated, and sealed with Antifade PVA mounting medium. Finally, stained sections were imaged using a spinning disk confocal fluorescence microscope (Olympus IX71, Japan). Adjacent sections were stained with […] HE staining. Fluorescence signals were observed using a 40× objective lens (NA 0.90, UPLSAPO, Olympus, Japan). Images were analyzed using FV10-ASW 3.1 software.

PSCA [2] = target: T1, PSCA; test: In vivo blocking of GGa-ICG by PSCA antibodies; set-up: endogenous in cells; species or system nude mice; conditions: 1 mg PSCA antibody pre-injected, GGa-ICG 12 hours later
Experimental: 1 mg of PSCA antibody was pre-injected into nude mice, followed by injection of GGa-ICG 12 hours later, and live imaging was performed to observe the phenomenon of GGa-ICG binding.

[3] = test system: prostate cancer lesions (PC-3 xenograft); test: In vivo imaging in PC-3 mouse xenograft model; set-up: species or system BALB/c nude mice
Experimental: Male BALB/c nude mice (BALB/c-nude) were purchased from Beijing SLAC Laboratory Animal Co., Ltd. Five-week-old nude mice were subcutaneously injected with 5×10^6 PC-3 cells on the back. The tumor was allowed to grow for 15 to 20 days until it reached a diameter of 0.5-1.5 cm. The BALB/c nude mice bearing tumors were anesthetized with sedatives and anesthetics. Once the mice were immobilized, a designated dose (0.1 mg, 0.5 mg, 1 mg, 2 mg per injection) of GGa-ICG or ssDNA-ICG was injected through the tail vein. At certain time points, fluorescent images of live mice were collected using the IVIS Lumina II in vivo imaging system. For ex vivo fluorescent experiments, tumor-bearing mice that were intravenously injected with GGa-ICG or ssDNA-ICG were euthanized by cervical dislocation 1 hour after injection under anesthesia. After dissection, organs including brain, liver, kidney, spleen, lung, heart, and tumor tissue were imaged using the IVIS Lumina II in vivo imaging system as described above.

[4] = Fluorescence depth detection (tissue penetration depth); type: physicochemical; conditions: excited at 780 nm, signals detected after 5 minutes
Experimental: The tissue penetration depth of ICG, GGa-ICG, and ssDNA-ICG was detected using a fluorescence spectrometer at depths of 1, 2, 3, 4, and 5 mm. Fluorescence was excited at a wavelength of 780 nm and fluorescence signals were detected after 5 minutes to compare signal-to-noise ratios and observe the fluorescence signal penetration depth.

PSCA [5] = target: T1, PSCA; test: Binding site of GGa-ICG on PSCA protein; conditions: sequence ALQPGTALLCYSCKA
PC-3 cells = test: Affinity detection by flow cytometry; type: binding, human; conditions: PC3 cells, 0-500 nM, 37° C., read-out: dissociation constant
Experimental: To test the affinity of different GGa-ICG aptamers for PC-3 cells, aptamers at different concentrations (0, 10, 20, 50, 100, 200, 500 nM) are incubated with 2×10^5 cells at 37° C. After digestion into a cell suspension, flow cytometry was used for analysis. The average fluorescence intensity of the background was subtracted from that of each sample. The equilibrium dissociation constant (Kd) for aptamer-cell interactions is calculated using SigmaPlot software.

[6] = doses of 0.1-2 mg/animal, tail vein

Substance: GGa-ICG: near-infrared probe: PSCA-binding nucleic acid aptamer GGa linked at 3′ to an ICG derivative dye (DNA TGCCACTACAGCTGGTTCGGTTTGGTGACTTCGTTCTTCGTTGTGGT; 3'-ICG dye, further chemistry not given here)
- target protein hit list by LC-MS/MS (PSCA [1]): PSCA ranking first
- binding rate with PC tissues (PC tissues): 82.5%
- fluorescence signal in PC and metastatic tissues (PC tissues): Strong fluorescence signals
- fluorescence signal in normal tissues (PC tissues): No fluorescence signal
- blocking of tumor visualization by PSCA antibody (PSCA [2]): Completely Blocked
- time of optimal detection after injection [3, 6]: 8 to 12 h
- time until which detection lasted [3, 6]: 24 to 48 h
- binding to prostate cancer lesions in vivo ([3]; intravenous injection, at 2, 4, and 8 hours): specifically bound
- metabolism pathway ([3]; mouse, in vivo): partially metabolized via the liver and kidney pathways
- time within which probe in the organs was essentially metabolized ([3]; organs of tumor-bearing mice): ≤ 24 h
- penetration depth [4]: ~6 mm
- binding site on PSCA protein (amino acids) (PSCA [5]): 14-28
- Kd (PC-3 cells): 54.9 nM
